Data as given in patent publication US20250313535A1, “ALPHA 4 BETA 7 INTEGRIN MODULATORS AND USES THEREOF” (DICE MOLECULES SV, INC., priority 2022, published 2025).

Key:
α4β1 integrin = α4β1 integrin (Homo sapiens (Human), UniProt P05556+P13612); assay: Integrin Adhesion Assay: Protocol 2 (VCAM-coated plate, Jurkat cells, CellTiter GLO readout); assay type: cell-based; settings: determined by at least one of the assays described (protocol not specified)
Procedure, shortened: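 Jurkat cells (2×10^6 per mL) adhered to VCAM-coated (0.1 ug/well), BSA-blocked wells with compound (1% DMSO) for 1 h at 37° C in 10 mM HEPES, 150 mM NaCl, 1 mM MnCl2, 0.1 mM CaCl2. After four washes, bound cells were quantified by CellTiter-Glo luminescence. Percent inhibition versus DMSO and control-compound wells was fitted to a 4-parameter curve.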

α4β7 integrin = α4β7 integrin (Homo sapiens (Human), UniProt P13612+P26010); assay: Integrin Adhesion Assay: Protocol 1 (MAdCAM-coated plate, RPMI-8866 cells, CellTiter GLO readout); assay type: cell-based; settings: integrin adhesion assay; determined by at least one of the assays described (protocol not specified)
α4β7 integrin, sequence (P13612 34-1032): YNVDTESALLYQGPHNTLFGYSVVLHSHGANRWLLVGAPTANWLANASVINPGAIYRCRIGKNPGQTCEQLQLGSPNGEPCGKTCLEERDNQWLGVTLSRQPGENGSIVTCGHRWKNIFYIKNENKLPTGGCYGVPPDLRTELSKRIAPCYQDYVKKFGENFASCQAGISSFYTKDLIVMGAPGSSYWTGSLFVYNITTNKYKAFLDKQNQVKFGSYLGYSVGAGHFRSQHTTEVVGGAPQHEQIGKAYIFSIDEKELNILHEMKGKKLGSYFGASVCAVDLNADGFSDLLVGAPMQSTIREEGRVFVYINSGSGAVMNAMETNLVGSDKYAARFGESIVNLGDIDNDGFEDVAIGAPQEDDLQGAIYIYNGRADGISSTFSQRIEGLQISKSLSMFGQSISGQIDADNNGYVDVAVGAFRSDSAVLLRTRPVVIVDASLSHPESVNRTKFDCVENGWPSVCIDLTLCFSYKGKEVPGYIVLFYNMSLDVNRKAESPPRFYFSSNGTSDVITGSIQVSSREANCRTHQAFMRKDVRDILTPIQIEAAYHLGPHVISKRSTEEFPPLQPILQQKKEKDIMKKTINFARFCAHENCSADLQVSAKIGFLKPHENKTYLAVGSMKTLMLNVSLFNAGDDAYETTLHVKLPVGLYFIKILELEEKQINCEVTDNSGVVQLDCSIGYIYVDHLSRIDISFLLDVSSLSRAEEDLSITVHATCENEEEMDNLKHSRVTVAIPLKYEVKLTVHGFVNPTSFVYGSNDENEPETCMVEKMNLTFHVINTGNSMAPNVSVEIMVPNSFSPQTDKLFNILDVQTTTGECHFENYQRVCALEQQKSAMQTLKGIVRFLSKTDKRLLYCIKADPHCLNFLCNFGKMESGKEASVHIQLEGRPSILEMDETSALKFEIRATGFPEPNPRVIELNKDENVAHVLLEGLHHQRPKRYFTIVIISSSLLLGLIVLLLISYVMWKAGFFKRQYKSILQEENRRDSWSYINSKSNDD
α4β7 integrin, sequence (P26010 20-798): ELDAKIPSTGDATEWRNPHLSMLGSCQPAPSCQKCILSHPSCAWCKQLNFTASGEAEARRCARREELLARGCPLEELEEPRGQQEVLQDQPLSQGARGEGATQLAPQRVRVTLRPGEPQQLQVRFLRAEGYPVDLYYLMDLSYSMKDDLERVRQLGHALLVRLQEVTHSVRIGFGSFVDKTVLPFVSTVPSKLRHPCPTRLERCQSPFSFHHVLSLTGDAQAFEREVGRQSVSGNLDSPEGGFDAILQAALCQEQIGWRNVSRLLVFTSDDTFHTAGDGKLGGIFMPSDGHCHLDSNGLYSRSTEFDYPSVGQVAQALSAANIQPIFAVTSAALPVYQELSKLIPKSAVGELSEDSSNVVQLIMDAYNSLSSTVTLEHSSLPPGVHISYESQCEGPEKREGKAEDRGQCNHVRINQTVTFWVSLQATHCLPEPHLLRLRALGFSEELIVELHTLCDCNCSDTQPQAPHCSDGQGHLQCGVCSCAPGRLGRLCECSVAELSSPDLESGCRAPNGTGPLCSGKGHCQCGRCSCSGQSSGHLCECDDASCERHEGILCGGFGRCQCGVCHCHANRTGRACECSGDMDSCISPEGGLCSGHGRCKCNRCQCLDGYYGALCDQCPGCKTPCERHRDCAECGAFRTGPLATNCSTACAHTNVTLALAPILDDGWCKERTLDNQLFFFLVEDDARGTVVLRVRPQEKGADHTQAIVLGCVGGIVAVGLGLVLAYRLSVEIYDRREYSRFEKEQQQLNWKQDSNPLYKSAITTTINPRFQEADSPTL
Procedure, shortened: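 RPMI-8866 cells (2×10^6 per mL) added with compounds (1% DMSO) to MAdCAM-coated wells blocked in HEPES/NaCl buffer with 1 mM MnCl2, 0.1 mM CaCl2, 1% BSA; 1 h at 37° C, 5% CO2. After four washes, bound cells read by CellTiter GLO luminescence; % inhibition vs DMSO and control wells, 4-parameter fit.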

α4β1 integrin, sequence (P13612 34-1032): as the sequence (P13612 34-1032) above
α4β1 integrin, sequence (P05556 21-798): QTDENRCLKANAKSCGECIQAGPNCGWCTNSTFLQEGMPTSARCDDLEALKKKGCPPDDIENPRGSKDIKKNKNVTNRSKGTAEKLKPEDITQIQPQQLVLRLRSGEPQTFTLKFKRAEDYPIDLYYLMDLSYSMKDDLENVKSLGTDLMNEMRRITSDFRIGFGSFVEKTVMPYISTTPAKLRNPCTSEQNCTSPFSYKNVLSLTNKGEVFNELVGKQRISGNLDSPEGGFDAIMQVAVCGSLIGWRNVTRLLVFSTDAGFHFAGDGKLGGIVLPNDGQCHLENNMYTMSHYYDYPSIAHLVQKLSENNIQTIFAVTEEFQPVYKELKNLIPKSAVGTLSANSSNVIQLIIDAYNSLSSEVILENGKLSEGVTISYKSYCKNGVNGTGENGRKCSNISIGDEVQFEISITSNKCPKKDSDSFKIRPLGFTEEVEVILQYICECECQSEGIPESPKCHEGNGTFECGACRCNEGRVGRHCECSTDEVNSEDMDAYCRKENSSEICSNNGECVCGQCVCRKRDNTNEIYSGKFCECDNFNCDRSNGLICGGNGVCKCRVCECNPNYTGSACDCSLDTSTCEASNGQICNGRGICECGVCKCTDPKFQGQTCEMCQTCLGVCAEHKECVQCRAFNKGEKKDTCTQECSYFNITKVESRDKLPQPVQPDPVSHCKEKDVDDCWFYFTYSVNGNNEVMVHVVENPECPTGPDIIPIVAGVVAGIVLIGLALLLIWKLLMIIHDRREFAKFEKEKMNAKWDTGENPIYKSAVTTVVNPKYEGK

SMILES | IC50 (α4β1 integrin) [nM] | IC50 (α4β7 integrin) [nM]
Cn1ccc(=O)n(-c2cccc3c(C[C@H](NC(=O)[C@H]4C[C@H]5CC[C@@H](C4)N5CC(F)(F)F)C(=O)O)cccc23)c1=O [Compound 154] | > 1000 | > 1000
COCCN1CCC(C)(C(=O)N[C@@H](Cc2cccc3c(-n4c(=O)ccn(C)c4=O)cccc23)C(=O)O)CC1 [Compound 159] | > 1000 | 100 to 1000
CCN1CCC(C)(C(=O)N[C@@H](Cc2cccc3c(-n4c(=O)ccn(C)c4=O)cccc23)C(=O)O)CC1 [Compound 160] | > 1000 | 10 to 100
Cn1ccc(=O)n(-c2cccc3c(C[C@H](NC(=O)C4(C)CCCCC4)C(=O)O)cccc23)c1=O [Compound 161] | > 1000 | 100 to 1000
Cn1ccc(=O)n(-c2cccc3c(C[C@H](NC(=O)C4(C)CCC(C)(C)CC4)C(=O)O)cccc23)c1=O [Compound 162] | > 1000 | 100 to 1000
Cn1ccc(=O)n(-c2cccc3c(C[C@H](NC(=O)C4(C#N)CCN(CC(F)(F)F)CC4)C(=O)O)cccc23)c1=O [Compound 163] | > 1000 | 10 to 100
Cn1ccc(=O)n(-c2cccc3c(C[C@H](NC(=O)C4(F)CCN(CC(F)(F)F)CC4)C(=O)O)cccc23)c1=O [Compound 164] | > 1000 | > 1000
Cn1ccc(=O)n(-c2cccc3c(C[C@H](NC(=O)C45CCC(C(F)(F)F)(CC4)CC5)C(=O)O)cccc23)c1=O [Compound 165] | > 1000 | 100 to 1000
Cn1ccc(=O)n(-c2cccc3c(C[C@H](NC(=O)[C@@H]4C[C@H]5CC[C@@H](C4)N5CC(F)(F)F)C(=O)O)cccc23)c1=O [Compound 166] | > 1000 | > 1000
COC(=O)[C@H](Cc1cccc2c(-n3c(=O)ccn(C)c3=O)cccc12)NC(=O)c1c(F)cccc1CN1CCOCC1 [Compound 168] | > 1000 | 100 to 1000
Cn1c(CCN2CC(F)C2)cc(=O)n(-c2cccc3c(C[C@H](NC(=O)c4c(F)cc(N5CCOC[C@@H]5C(F)(F)F)cc4F)C(=O)O)cccc23)c1=O [Compound 169] | > 1000 | < 10
Cn1ccc(=O)n(-c2cccc3c(C[C@H](NC(=O)c4c(F)cc(N5CCOC[C@H]5C(F)(F)F)cc4F)C(=O)O)cccc23)c1=O [Compound 170] | > 1000 | 10 to 100
Cn1ccc(=O)n(-c2cccc3c(C[C@H](NC(=O)C(C)(C)c4cccc(-c5ccccc5)c4)C(=O)O)cccc23)c1=O [Compound 176] | > 1000 | 100 to 1000
Cn1ccc(=O)n(-c2cccc3c(C[C@H](NC(=O)C(C)(C)CSc4cccc(C(F)(F)F)c4)C(=O)O)cccc23)c1=O [Compound 177] | > 1000 | > 1000
Cn1ccc(=O)n(-c2cccc3c(C[C@H](NC(=O)C(C)(C)c4ccc(Oc5ccccc5)cc4)C(=O)O)cccc23)c1=O [Compound 178] | > 1000 | > 1000
Cc1ccccc1-c1cccc(C(F)(F)C(=O)N[C@@H](Cc2cccc3c(-n4c(=O)ccn(C)c4=O)cccc23)C(=O)O)c1 [Compound 179] | > 1000 | > 1000
Cn1ccc(C(F)(F)F)c(-c2nccc3c(C[C@H](NC(=O)c4c(F)cccc4F)C(=O)O)cccc23)c1=O [Compound 210] | > 1000 | < 10
Cn1ccc(C(F)(F)F)c(-c2nccc3c(C[C@H](NC(=O)c4c(F)cc5nc(CC(F)(F)F)[nH]c5c4F)C(=O)O)cccc23)c1=O [Compound 213] | > 1000 | 10 to 100

The remaining lines, values ahead:

IC50 (α4β1 integrin) [nM] | IC50 (α4β7 integrin) [nM] | SMILES
> 1000 | 100 to 1000 | O=C(N[C@@H](Cc1cccc2c(-c3nccc4ccncc34)cccc12)C(=O)O)c1c(F)cc(N2CCOC[C@H]2CC(F)F)cc1F [Compound 140]
> 1000 | 10 to 100 | C/C=C/c1cn(C)c(=O)n(-c2cccc3c(C[C@H](NC(=O)c4c(F)cccc4F)C(=O)O)cccc23)c1=O [Compound 141]
> 1000 | 10 to 100 | Cn1ccc(C(F)(F)F)c(-c2cccc3c(C[C@H](NC(=O)c4c(F)cc(N5CCOC[C@@H]5C(F)(F)F)cc4F)C(=O)O)cccc23)c1=O [Compound 142]
100 to 1000 | < 10 | Cn1ccc(C(F)(F)F)c(-c2cccc3c(C[C@H](NC(=O)c4c(F)cc(N5CCOC[C@@H]5C(F)(F)F)cc4CN4CCOCC4)C(=O)O)cccc23)c1=O [Compound 143]
100 to 1000 | 10 to 100 | Cn1ccc(=O)n(-c2cccc3c(C[C@H](NC(=O)c4c(F)cc5cn(CC(F)(F)F)nc5c4F)C(=O)O)cccc23)c1=O [Compound 144]
> 1000 | < 10 | O=C(N[C@@H](Cc1cccc2c(-c3nccc4ccncc34)cccc12)C(=O)O)c1c(F)cc(N2CCOC[C@H]2CC(F)F)cc1CN1CCOCC1 [Compound 146]
> 1000 | < 10 | O=C(N[C@@H](Cc1cccc2c(-c3cccc4ccncc34)cccc12)C(=O)O)c1c(F)cc(N2CCOC[C@@H]2C(F)(F)F)cc1CN1CCCC1 [Compound 148]
> 1000 | 10 to 100 | O=C(N[C@@H](Cc1cccc2c(-c3cccc4ccncc34)cccc12)C(=O)O)c1c(F)cc(N2CCOC[C@@H]2C(F)(F)F)cc1CN1CCOCC1 [Compound 149]
> 1000 | < 10 | O=C(N[C@@H](Cc1cccc2c(-c3cccc4ccncc34)cccc12)C(=O)O)c1c(F)cc(NCC(F)(F)F)cc1CN1CCCC1 [Compound 150]
> 1000 | < 10 | O=C(N[C@@H](Cc1cccc2c(-c3cccc4ccncc34)cccc12)C(=O)O)c1c(F)cc(N(CC(F)(F)F)CC(F)(F)F)cc1CN1CCCC1 [Compound 151]
100 to 1000 | 10 to 100 | CCC1(C(=O)N[C@@H](Cc2cccc3c(-n4c(=O)ccn(C)c4=O)cccc23)C(=O)O)CCN(CC(F)(F)F)CC1 [Compound 152]
100 to 1000 | 10 to 100 | CC(C)C1(C(=O)N[C@@H](Cc2cccc3c(-n4c(=O)ccn(C)c4=O)cccc23)C(=O)O)CCN(CC(F)(F)F)CC1 [Compound 153]
> 1000 | > 1000 | Cn1ccc(=O)n(-c2cccc3c(C[C@H](NC(=O)[C@@H]4[C@@H]5CC[C@H]4CN(CC(F)(F)F)C5)C(=O)O)cccc23)c1=O [Compound 155]
> 1000 | 100 to 1000 | Cn1ccc(=O)n(-c2cccc3c(C[C@H](NC(=O)C4C(C)(C)CN(CC(F)(F)F)CC4(C)C)C(=O)O)cccc23)c1=O [Compound 156]
> 1000 | 10 to 100 | Cn1ccc(=O)n(-c2cccc3c(C[C@H](NC(=O)[C@@]4(C)CCCN(CC(F)(F)F)CC4)C(=O)O)cccc23)c1=O [Compound 157]
> 1000 | 100 to 1000 | Cn1ccc(=O)n(-c2cccc3c(C[C@H](NC(=O)[C@@]4(C)CCCN(CC(F)(F)F)CC4)C(=O)O)cccc23)c1=O [Compound 158]
100 to 1000 | < 10 | Cn1ccc(=O)n(-c2cccc3c(C[C@H](NC(=O)c4c(F)cccc4CN4CCOCC4)C(=O)O)cccc23)c1=O [Compound 167]
100 to 1000 | < 10 | CCOCc1cc(OC)c(-c2cccc3c(C[C@H](NC(=O)c4c(F)cc(N5CCOC[C@@H]5C(F)(F)F)cc4F)C(=O)O)cccc23)c(OC)c1 [Compound 171]
100 to 1000 | 10 to 100 | CCOCc1cc(OC)c(-c2cccc3c(C[C@H](NC(=O)c4c(F)cccc4F)C(=O)O)cccc23)c(OC)c1 [Compound 172]
